Results published in US12459891B2, “1-[1-(4-benzyloxy-3,5-difluoro-benzoyl)-4-fluoro-pyrrolidine-2-carbonyl]-pyrrolidine-2-carbonitrile” (ACCURE THERAPEUTICS, S.L., priority 2020, dated 2025).

Experiments:
[1] = Parallel artificial membrane permeability assay (PAMPA), BBB passive diffusion; format: in vitro ADME; conditions: pH 7.4, 4 hours; for % R (compound retention of the phospholipid membrane), PAMPA / % T (percentage of transport), PAMPA: 200 μM; for Papp at 4 h, 200 μM: pig, PAMPA, room temperature, read-out: Effective permeability Pe
Description: Parallel artificial membrane permeability assay (PAMPA) described in Kansy M et al., J. Med. Chem. 1998; 41(7):1007-10 was used to determine the capacity of compounds to cross the Blood-Brain Barrier (BBB) by passive diffusion (Di L et al., Eur. J. Med. Chem. 2003; 38(3):223-32). The effective permeability (Pe) of the compounds was measured at an initial concentration of 200 μM. The buffer solution was prepared from a commercial concentrated one following the manufacturer's instructions. pH was adjusted to 7.4 using a 0.5 M NaOH solution. A stock solution of new compound was prepared in DMSO and diluted with buffer solution to a final 200 μM concentration (0.5% DMSO content). The PAMPA sandwich was separated and each donor well was filled with 200 μL of the compound solution. The acceptor plate was placed into the donor plate, ensuring that the underside of the membrane was in contact with buffer. 4 μL of the mixture of phospholipids (20 mg/mL) in dodecane was added to the filter of each well, and 200 μL of buffer solution was added to the each acceptor well. The plate was covered and incubated at room temperature in a saturated humidity atmosphere for 4 hours under orbital agitation at 100 rpm. After 4 hours, the contents of the acceptor and donor compartments were analyzed by HPLC: 150 μL of each well from the donor plate and 150 μL of each well from the acceptor plate were transferred to HPLC vials, injecting each sample into a reverse-phase C18 column (150 mm×4.6 mm×5 μm, 100 Å) (100 μL/injection from the acceptor wells, 10 μL/injection from the donor wells and for t0 references). Transport was also confirmed by MALDI-TOF spectrometry.
The phospholipid mixture used was a porcine polar brain lipid extract, provided by Avanti polar lipids, with the following composition: 12.6% phosphatidylcholine (PC), 33.1% phosphatidylethanolamine (PE), 18.5% phosphatidylserine (PS), 4.1% phosphatidylinositol (PI), 0.8% phosphatidic acid and 30.9% of other compounds.
The effective permeability (Pe) after 4 hours was calculated using equation 2, the percentage of transport (T %) was calculated using equation 3 and the compound retention (R %) of the phospholipid membrane using equation 4:
[formula] [formula] [formula] wherein: • t is time (h) • CA(t) is the compound concentration in the acceptor well at time t, CD(t) is the compound concentration in donor well at time t • and CD(t0) is the compound concentration in the donor well at t0.

[2] = PK in mice after intravenous bolus; format: in vivo; conditions: male, Swiss Albino, mouse, plasma, 1 mg/kg intravenous bolus; for Vd: read-out: Vss
Description: The pharmacokinetics of the compounds following intravenous bolus administration was conducted in male Swiss Albino mice. The study was conducted in accordance with the guidelines of the Institutional Animal Ethics Committee (IAEC) and in accordance with the requirements of Committee for the Purpose of Control and Supervision of Experiments on Animals (CPCSEA), India.
Study was conducted in 12 mice per compound using sparse sampling design (n=3/time point) to produce composite profile. The compounds were dissolved in 2% Twee80® in saline (0.9 NaCl) at a concentration of 0.5 mg/mL. Mice were administered a single dose of 1 mg/kg of the compound solution by intravenous bolus through lateral tail vein using 1 mL BD syringe guided with 26G needle at a dose volume of 2 mL/kg.
Blood samples were collected (n=3 per time point) at 0.083, 0.25, 0.5, 1, 2, 4, 6, 8, 24 and 48 h post-dose. At each time point, 120 μL of blood was collected by retro orbital plexus puncture and transferred into a labeled microfuge tube containing 200 mM K2EDTA solution (20 μL per mL of blood). The blood samples were centrifuged at 5000×g for 5 min at 4±2° C. Plasma samples were stored below −60° C. until bioanalysis.
Plasma samples were analyzed using a LC-MS/MS method with LLOQ of 1.06 ng/mL. Pharmacokinetic parameters in plasma were calculated using the non-compartmental analysis tool of the validated Phoenix WinNonlin® software (version 6.3). The area under the concentration time curve (AUClast) was calculated by linear trapezoidal rule. Peak plasma concentration (Cmax) and time to reach the peak plasma concentration (Tmax) were the observed values. Clearance (CL) and volume of distribution (Vss) were predicted values.

[3] = Microsomal stability (rat); format: in vitro ADME; conditions: Sprague-Dawley, pooled liver microsomes, pH 7.4; rat liver microsomes 0.5 mg/mL, 1 μM compound, 37° C., NADPH regenerating system
Description: The stability of the compounds in rat (Sprague-Dawley) pooled liver microsomes (catalog number 452501) was investigated according to the instructions provided by the vendor (BD Bioscience). A stock solution (500 μM) of the compound to be tested was prepared in DMSO. Two μL of the compounds were incubated at 1 μM final concentration in a mixture of: • 713 μL of H2O • 200 μL of 0.5 M potassium phosphate (pH 7.4) • 50 μL of NADPH regenerating system solution A (BD Bioscience, catalog number 451220) • 10 μL of NADPH regenerating system solution B (BD Bioscience, catalog number 451200)
The resulting mixture was warmed to 37° C. for 5 min. After which, 25 μL of liver microsomes were added at a final concentration of 0.5 mg/mL. The mixture was incubated at 37° C. with orbital agitation (100 rpm). At selected time points, 100 μL aliquots were extracted and mixed with 100 μL of acetonitrile. The obtained precipitate was shake in a vortex for 1 minute. Samples were kept at 4° C. for 30 min, after which, samples were centrifuged at 20,000×g at 4° C. for 30 min. The supernatant was filtered out and subsequently analysed by UPLC-MS. All stability tests were performed in duplicates.

[4] = system: MK-801-treated mice; assay: Novel object recognition (NOR) task, MK-801-induced cognitive deficit; format: in vivo, male C57/Bl6 mice; conditions: for % discrimination index: mean ± s.e.m.
[5] = compound 5 mg/kg intraperitoneal 35 min before test + MK 801 0.2 mg/kg sc
[6] = compound 5 mg/kg oral (po) 35 min before test + MK 801 0.2 mg/kg sc

% R (compound retention of the phospholipid membrane), PAMPA [1] [%] | % T (percentage of transport), PAMPA [1] [%] | Papp at 4 h, 200 μM [1] [nm/s] | AUC(0-t) [2] [µg·h/mL] | clearance [2] [L/h/kg] | Vd [2] [L/kg] | half-life at 1 μM [3] [min] | SMILES | % discrimination index [4, 5] [%] | % discrimination index [4, 6] [%] | Efficacy after oral administration (in words) ([4]; oral administration)
10.93 | 29.92 | 221 | 0.131 | 7.56 | 0.64 | < 5 | COc1cc(C(=O)N2CC(F)(F)C[C@H]2C(=O)N2CCC[C@H]2C#N)cc(OC)c1OCc1ccccc1 [Comp Ex. 3, (S)-1-((2S)-1-(4-(benzyloxy)-3,5-dimethoxybenzoyl)-4,4-difluoropyrrolidine-2-carbonyl)pyrrolidine-2-carbonitrile] | 42.7 ± 3.3 | 20.1 ± 2.9 | no efficacy
24 | 18.1 | 47 | 0.127 | 5.98 | 1.19 | 12 | N#C[C@@H]1CCCN1C(=O)[C@@H]1C[C@@H](F)CN1C(=O)c1cc(F)c(OCc2ccccc2)c(F)c1 [Example 1, (S)-1-((2S,4R)-1-(4-(benzyloxy)-3,5-difluorobenzoyl)-4-fluoropyrrolidine-2-carbonyl)pyrrolidine-2-carbonitrile] | 30.3 ± 3.9 | 42.1 ± 5.1 | 
 | 10.43 |  | 0.0227 | 41.8 | 9.06 | < 5 | N#C[C@@H]1CCCN1C(=O)[C@@H]1CC(F)(F)CN1C(=O)c1ccc(OCc2ccccc2)c(F)c1 [Comp Ex. 4, (S)-1-((S)-1-(4-(benzyloxy)-3-fluorobenzoyl)-4,4-difluoropyrrolidine-2-carbonyl) pyrrolidine-2-carbonitrile] |  |  | 
